Residues, ends and D or L forms follow the SMILES beside them.
Experiments:
[1] = test system: A549 lung adenocarcinoma cells; conditions: A549, 200 µM, 24 h; SWATH; n = 9 per group
Experimental: In brief, A549 lung adenocarcinoma cells were seeded at a density of 1 × 10^5 cells/well in a 24‐well plate. After overnight incubation, the media were changed with fresh media with or without 200 µM ALA‐A2 and incubated at 37 °C in 5%CO2 for 24 h. The cells were washed twice with PBS before lysis with Laemmli lysis buffer (62.5 mM Tris‐HCl, pH 6.8, 10% v/v glycerol, 2% w/v SDS, and 2.5% v/v beta‐mercaptoethanol). Total protein was quantified using the Bradford protein assay (Bio‐Rad, Hercules, USA). 10 µg of protein was resolved by 12% SDS–PAGE before staining with Coomassie brilliant blue G‐250, and the gel was cut into small pieces for in‐gel tryptic digestion. An amount of peptide sample corresponding to 2.5 µg of total protein was resolved in an Eksigent nanoLC ultra nanoflow high performance liquid chromatography in tandem with a TripleTOF 6600+ mass spectrometer (ABSciex, Toronto, Canada) set for information‐dependent acquisition (IDA) and DIA modes. The peptides were loaded onto a C18 column trap (Nano Trap RP‐1, 3 µm 120 Å, 10 mm × 0.075 mm; Phenomenex, CA, USA) at a flow rate of 3 µL min^−1 of 0.1% formic acid in water for 10 min to desalt and concentrate the sample, which was then resolved by HPLC using a stationary phase of a C18 analytical column (bioZen Peptide Polar C18 nanocolumn, 75 µm × 15 cm, particle size 3 µm, 120 Å; Phenomenex) with mobile phase gradients at a flow rate of 300 nL min^−1 of 3–30% acetonitrile/0.1% formic acid for 60 min, 30–40% acetonitrile/0.1% formic acid for 10 min, 40–80% acetonitrile/0.1% formic acid for 2 min, 80% acetonitrile/0.1% formic acid for 6 min, 80–3% acetonitrile/0.1% formic acid for 2 min, and 3% acetonitrile/0.1% formic acid for 25 min. The eluate was ionized and sprayed into the mass spectrometer using OptiFlow Turbo V Source (Sciex). Ion source gas 1, ion source gas 2, and curtain gas were set at 19, 0, and 25 vendor arbitrary units, respectively. The interface heater temperature was 150 °C and ion spray voltage was 3.3 kV.
Each cycle performed one time of flight (TOF) scan (250 ms accumulation time, 350–1250 m/z window with a charge state of +2) followed by IDA of the 100 most intense ions, while the minimum MS signal was set to 150 counts. The MS/MS scan was operated in high sensitivity mode with 50 ms accumulation time and 50 ppm mass tolerance. Former MS/MS candidate ions were excluded for a period of 12 s after their first occurrence to reduce the redundancy of identified peptides. DIA mode was performed in a range of 350–1500 m/z using a predefined mass window of 7‐m/z with an overlap of 1‐m/z for 157 transmissible windows. MS scan was set at 2044 cycles, where each cycle performed one TOF‐MS scan type (50 ms accumulation time across 100–1500 precursor mass range) acquired in every cycle for a total cycle time of 3.08 s. MS spectra of 100–1500 m/z were collected with an accumulation time of 96 ms per SWATH window width. Resolution for MS1 was 35 000 and SWATH‐MS2 scan was 30 000. Rolling collision energy mode with collision energy spread of 15 eV was applied. The IDA and DIA data (.wiff) were recorded by Analyst‐TF v.1.8 software (ABSciex).
A total of 18 wiff files of IDA experiments (two groups; three biological replicates per group; three technical replicates per biological sample) were combined and searched using Protein Pilot v.5.0.2.0 software (ABSciex) against the Swiss‐Prot database (UniProtKB 2022_01) Homo sapiens (20385 proteins in database) with the searching parameters as follows; alkylation on cysteine by iodoacetamide, trypsin enzymatic digestion, one missed cleavage allowed, monoisotopic mass, and 1% false discovery rate.

[2] = test system: A549 cells; test: Autophagy activity assay; type: cell-based, human; conditions: A549, 200 µM, 24 h; autophagosome/autophagolysosome signal normalised to nuclear signal; three biological replicates
Experimental: A549 cells (1 × 10^4 cells/well in a 96‐well plate) were treated with 200 µM ALA‐A2. Treated cells were maintained for 24 h before determining autophagy activity using an autophagy assay kit (ab139484, Abcam, Milpitas, CA). To prepare for the staining, the media was removed, and the cells were washed once with 1× assay buffer. The dual color detection solution was added to the wells and incubated for 30 min. The cells were washed and 1× assay buffer added to each well. The nuclear signal was excitation of 340 nm and […], whereas autophagosomes and autophagolysosomes were detected by excitation of 480 nm and emission of 530 nm. Autophagy activity was calculated by normalizing the autophagosome/autophagolysosome signal to the nuclear signal. Rapamycin (2 µM), a known autophagy inducer, was the positive control.^[ [33] ^] This experiment was performed in three biological replicates.

CC(C)C[C@H](NC(=O)[C@@H](N)CCCCN)C(=O)N[C@@H](Cc1c[nH]c2ccccc12)C(=O)N[C@@H](CS)C(=O)N[C@@H](CCCCN)C(=O)N[C@@H](CO)C(=O)N[C@@H](CO)C(=O)N[C@@H](CCC(N)=O)C(=O)N[C@H](C(=O)N1CCC[C@H]1C(=O)N[C@@H](CCC(N)=O)C(=O)N[C@@H](CO)C(=O)N[C@@H](CCCNC(=N)N)C(=O)O)C(C)C [ALA‐A2] (H-KLWCKSSQVPQSR-OH)
Fold‐change [treated/ untreated]: 40S ribosomal protein SA (RSSA, P08865) [1]: 0.25 | Fold‐change [treated/ untreated]: 60S ribosomal protein L6 (RL6, Q02878) [1]: 2.87 | Fold‐change [treated/ untreated]: Actin, cytoplasmic 2 (ACTG, P63261) [1]: 0.09 | Fold‐change [treated/ untreated]: Aldo‐keto reductase family 1 member B10 (AK1BA, O60218) [1]: 0.29 | Fold‐change [treated/ untreated]: Annexin A4 (ANXA4, P09525) [1]: 2.98 | Fold‐change [treated/ untreated]: Annexin A7 (ANXA7, P20073) [1]: 3.29 | Fold‐change [treated/ untreated]: Chloride intracellular channel protein 1 (CLIC1, O00299) [1]: 3.02 | Fold‐change [treated/ untreated]: Elongation factor 1‐alpha‐like 3 (EF1A3, Q5VTE0) [1]: 0.15 | Fold‐change [treated/ untreated]: Elongation factor 1‐gamma (EF1G, P26641) [1]: 0.31 | Fold‐change [treated/ untreated]: Endoplasmin (ENPL, P14625) [1]: 0.38 | Fold‐change [treated/ untreated]: Glyceraldehyde‐3‐phosphate dehydrogenase (G3P, P04406) [1]: 0.32 | Fold‐change [treated/ untreated]: Heat shock 70 kDa protein 8 (HSPA8, P11142) [1]: 0.25 | Fold‐change [treated/ untreated]: Heat shock protein HSP90 alpha (HSP90AA1, P07900) [1]: 0.26 | Fold‐change [treated/ untreated]: Heat shock protein HSP90 beta (HSP90AB1, P08238) [1]: 0.40 | Fold‐change [treated/ untreated]: Heterogeneous nuclear ribonucleoprotein A/B (ROAA, Q99729) [1]: 2.35 | Fold‐change [treated/ untreated]: Heterogeneous nuclear ribonucleoproteins A2/B1 (ROA2, P22626) [1]: 0.25 | Fold‐change [treated/ untreated]: Histone H1.3 (H13, P16402) [1]: 0.32 | Fold‐change [treated/ untreated]: Histone H2A type 2‐A (H2A2A, Q6FI13) [1]: 0.48 | Fold‐change [treated/ untreated]: Histone H4 (H4, P62805) [1]: 0.26 | Fold‐change [treated/ untreated]: Hsp70‐binding protein 1 (HPBP1, Q9NZL4) [1]: 0.48 | Fold‐change [treated/ untreated]: Importin‐5 (IPO5, O00410) [1]: 2.22 | Fold‐change [treated/ untreated]: Junction plakoglobin (PLAK, P14923) [1]: 2.05 | Fold‐change [treated/ untreated]: Keratin, type I cytoskeletal 18 (K1C18, P05783) [1]: 0.35 | Fold‐change [treated/ untreated]: Keratin, type I cytoskeletal 19 (K1C19, P08727) [1]: 0.34 | Fold‐change [treated/ untreated]: Leucine‐rich PPR motif‐containing protein (LPPRC, P42704) [1]: 2.06 | Fold‐change [treated/ untreated]: Neurofibromin (NF1, P21359) [1]: 0.07 | Fold‐change [treated/ untreated]: Peroxiredoxin‐1 (PRDX1, Q06830) [1]: 0.26 | Fold‐change [treated/ untreated]: Pyruvate kinase PKM (KPYM, P14618) [1]: 0.43 | Fold‐change [treated/ untreated]: RNA‐binding protein Raly (RALY, Q9UKM9) [1]: 3.57 | Fold‐change [treated/ untreated]: Serine/arginine‐rich splicing factor 3 (SRSF3, P84103) [1]: 0.33 | Fold‐change [treated/ untreated]: TAR DNA‐binding protein 43 (TADBP, Q13148) [1]: 4.07 | Fold‐change [treated/ untreated]: Threonine‐tRNA ligase 1 (SYTC, P26639) [1]: 2.61 | Fold‐change [treated/ untreated]: Transaldolase (TALDO, P37837) [1]: 0.43 | Fold‐change [treated/ untreated]: Transketolase (TKT, P29401) [1]: 0.35 | Fold‐change [treated/ untreated]: Tubulin beta chain (TBB5, P07437) [1]: 0.27 | Fold‐change [treated/ untreated]: T‐complex protein 1 subunit delta (TCPD, P50991) [1]: 2.39 | Fold‐change [treated/ untreated]: T‐complex protein 1 subunit gamma (TCPG, P49368) [1]: 0.46 | Fold‐change [treated/ untreated]: Ubiquitin‐60S ribosomal protein L40 (UBA52, P62987) [1]: 0.41 | autophagic activity [2]: 1.5 fold of untreated cells
